{"source": "patent US11932870B2", "about": "“Compositions and methods for immune cell modulation in adoptive immunotherapies” (Fate Therapeutics, Inc., priority 2016, dated 2024)", "key": {"viable CD4+ population": {"test_system": "viable CD4+ population", "assay": "T cell compound screen: CCR7+CD62L+ cells in the viable CD4+ population (flow cytometry)", "type": "cell-based, human", "details": "10 μM, about 6 days, anti-CD3/anti-CD28 beads; hit = Z-score > +2 for percent or absolute number CCR7+CD62L+ in CD4+", "excerpt": "In Vitro T Cell Culture. Fresh leukopaks (AllCells, Alameda, CA) were obtained from healthy donors, from which T cells were negatively selected using the EasySep Human T cell Enrichment Kit (Stem Cell Technologies, Vancouver, Canada). The freshly isolated T cells were aliquoted and cryopreserved. On the day the screens were initiated, T cells were thawed and washed into X-Vivo 15 with 5% human AB serum, IL-2, pen/strep, and additional supplements. Cells were dispensed into flat-bottom 384-well plates at 5×10^5 cells/ml with anti-CD3/anti-CD28 beads. Individual compounds were added at a final concentration of 10 μM to each well from column 3 to column 22 of each plate. Positive and negative controls were added to additional wells. Cells were incubated for about 6 days at 37 degrees with 5% CO2.\nFlow Cytometry. On Day 6 of culture, cells were stained with a fixable viability marker and fluorophore-conjugated antibodies: CD3, CD4, CD8, CD45RA, CD45RO, CD62L, CCR7, CD27, and CD122 (BD Biosciences, San Jose, CA; and BioLegend, San Diego, CA). Fluorescent absolute counting beads (Spherotech, Lake Forest, IL) were added just prior to acquisition. Data acquisition was performed on a BD Fortessa X-20 (BD Biosciences) and data were analyzed using Treestar software (FlowJo, Ashland, OR) and Spotfire (Tibco, Boston, MA).\nThese cells are characterized by expression of CCR7 and CD62L. Therefore, cells co-expressing both of these identifying markers were evaluated. Within the viable CD4+ population and viable CD8+ population, the percent of cells co-expressing CCR7 and CD62L was determined. The expression of either CD62L or CCR7 on T cells, as indicative of the desired T cell subsets, have been described as having favorable functional characteristics for CAR-T cell therapy, and potentially other adoptive T cell therapies.\nThe number of events in each of these gates relative to the number of absolute counting beads in each sample was calculated, defining a measure of the absolute number of naïve, stem cell memory, or central memory T cells within the CD4+ and/or CD8+ populations. A z-Score relative to the screened compound samples within each 384-well plate was calculated for each of these four values: 1) percent CCR7+CD62L+in CD4+, 2) percent CCR7+CD62L+in CD8+, 3) absolute relative number of CCR7+CD62L+in CD4+, and 4) absolute number of CCR7+CD62L+in CD8+(FIGS. 1A and 1i). Z-scores were also calculated for the percent viability of all cells within each sample and the relative absolute number of cells within each sample. A “Z-Score” is a statistical measurement of a score's relationship to the mean in a group of scores. AZ-score of 0 means the score is the same as the mean. AZ-score can also be positive or negative, indicating whether it is above or below the mean and by how many standard deviations."}, "[1]": {"test_system": "CD8 T cells transduced with the CAR-2 construct", "assay": "Larger-scale (24-well GREX) CAR-T culture: viability and expansion", "type": "cell-based, human", "details": "expanded with compound or vehicle for 6 days", "excerpt": "The cells were transduced with the CAR-2 construct (FIG. 2) one day after activation and then replated into 24-well GREX plates with or without compounds. Half the media was replaced every two days thereafter until harvest one week post activation. Cells were activated and expanded in the presence of compound or vehicle for 6 days."}, "[2]": {"test_system": "CAR-T cells co-cultured with irradiated K562 tumor cells that express CD19", "assay": "In vitro serial killing/re-stimulation assay", "type": "cell-based, human", "details": "relative to vehicle", "excerpt": "An informative clinical parameter that can in some contexts be indicative of likelihood of successful adoptive cell therapy in clinical trials is the ability and extent of expansion of the transferred cells in the patient post-treatment and/or persistence and continued function following initial expansion, e.g., in the context of continued exposure to antigen. The ability of engineered T cells to persist and continue expanding over multiple rounds of antigen stimulation can be indicative of such features and/or likelihood of in vivo function or clinical response. An in vitro serial killing/re-stimulation assay, where the T cells treated by each compound were evaluated for various functions, including expansion and ability to kill tumor cells expressing the target antigen in vitro over multiple rounds of exposure to and withdrawal from antigen, was used as a model system. Such assays were carried out on cells treated with or without compounds, to assess the impact of individual compounds on cell function after repeated encounter with antigen, and cell expansion or persistence in such contexts.\nCD8 T cells were activated, transduced, and expanded in the presence of DMSO, TWS119, or DCC-2036. At the end of the expansion, the CAR-T cells were cryopreserved. The serial re-stimulation assay was performed by thawing the CAR-T cells and co-culturing with irradiated K562 tumor cells that express CD19, the antigen recognized by the CAR. Prior to starting each round of killing, cell numbers were adjusted so that CAR-T cell numbers were substantially the same from the cultures generated with DMSO, TWS119, and DCC-2036 treatment respectively. An equal number of irradiated CD19-expressing K562 target cells were added to the different CAR-T cultures."}, "Nalm-6-luc tumor cells": {"test_system": "Nalm-6-luc tumor cells", "assay": "In vivo tumor clearance by compound-treated CD19 CAR-T cells", "details": "NSG mice with Nalm-6-luc; 2.0×10^5 cryopreserved compound-treated CAR-T cells per animal (1:1 CD4:CD8); imaging; FIGS. 7 and 8", "description": "NSG mice were injected with Nalm-6-luc, a CD19+ human tumor line engineered to express firefly luciferase. CAR-T cells were generated from CD4+ and CD8+ T cells that were separately activated and expanded in vitro. The cells were transduced with the CAR-2 construct (FIG. 2) one day after activation and then replated into 24-well GREX plates with or without the compounds. Half the media was replaced every two days thereafter until harvest one week post-activation. Cells were cryopreserved and then thawed for use. NSG mice were infused with tumor cells followed […] by CAR-T transfer via retroorbital injection. Four days after IV. injection with Nalm-6-luc cells, mice were treated with 2.0×10^5 CAR-T cells per animal (1:1 CD4:CD8). The mice were imaged periodically to determine tumor burden."}}, "note": "“Also recorded” adds a separate entry of the source."}
{"smiles": "CNC(=O)c1cc(Oc2ccc(NC(=O)Nc3cc(C(C)(C)C)nn3-c3ccc4ncccc4c3)c(F)c2)ccn1", "note": "[DCC-2036, Rebastinib]", "values": [{"measurement": "CD4 Hit", "setting": "viable CD4+ population", "result": "CD4"}, {"measurement": "CAR-T cell viability", "setting": "[1]; FIG. 3A", "result": "improved; also recorded: maintaining viability"}, {"measurement": "CAR-T cell expansion", "setting": "[1]; FIG. 3B", "result": "improved; also recorded: enhancing expansion"}, {"measurement": "cell number expansion of CAR-T cells in rounds 3 and 4 of the serial re-stimulation assay", "setting": "[2]; FIG. 3C", "result": "much higher than the vehicle control"}, {"measurement": "total expansion in CAR-T cell number through all 4 rounds of the serial re-stimulation assay", "setting": "[2]; FIG. 3D", "result": "much greater expansion relative to the vehicle control; also recorded: improves cell expansion"}, {"measurement": "tumor burden / tumor control", "setting": "Nalm-6-luc tumor cells", "result": "dramatically reduced tumor burden; also recorded: able to clear tumor from the majority of mice"}]}
